Data: patent publication US9308210B2, “Method for modulating canonical Wnt pathway using folate and inositol” (University of South Florida, priority 2009, dated 2016)
Where a name gives a salt, the structure may show the parent alone.

Legend:
chick embryos = assay: Early embryonic chick culture: heart development (MF20) after HCy, Li or Wnt3A exposure, FA/inositol rescue; assay type: in vivo, chick (Gallus gallus); conditions: for Abnormal (number of embryos) / Normal (number of embryos) / % Normal Hearts: HCy 50 μM, FA 10 μM
Description: Pathogen-free White Leghorn chick (Gallus gallus; Charles River, Mass.) and quail (Coturnix coturnix japonica; Strickland Farms, Ga.) embryos were used to analyze the effects of HCy on early embryogenesis. The early processes of heart development are well conserved among vertebrates and the avian model allows for more precise timing of exposure in early embryos. The incubation methodology using agarose-albumin has been described previously (Darnell and Schoenwolf, 2000). Briefly, the experimental paradigm involved exposing specific early stages of chick embryos, at HH stages 4 to 7 (Hamburger and Hamilton, 1951), to different concentrations of HCy (L-homocysteine thiolactone hydrochloride, Sigma) made up in physiological saline. Final concentrations of HCy included 30 μM, 50 μM, 75 μM and 100 μM. The minimal teratogenic dose was determined empirically to be 50 μM. This fit within the concentration range of 30 μM to 300 μM used by others that induced heart defects at later stages of development (Boot et al., 2004). Control embryos were incubated using the vehicle, physiological saline, in the agarose-albumin medium. Control and experimental cultures were incubated on the agarose-albumin plates for either 8 or 24 hours.
Carrier-free, recombinant mouse Wnt3A was purchased from R&D Systems (Minneapolis, Minn.). Wnt3A concentrations were empirically tested to find those that would induce cardiac defects but maintain embryonic viability. Wnt3A was tested at concentrations of 2 ng, 10 ng, 20 ng, 50 ng and 100 ng per ml. Concentrations of 2 ng/ml and 10 ng/ml were both effective in inducing cardiac defects. Both Wnt3A concentrations were used in the FA rescue experiments, as described. For the FA rescue experiments, folate (folic acid, Sigma-Aldrich) was added at a concentration of 2 μg, 5 μg or 10 μg per ml. […] For the experiments using inositol (myo-inositol, Sigma) supplementation, a concentration of 50 mg/ml was used.
The main embryonic defects related to the timing of embryonic exposure; the regions that were primarily affected related to an anterior-to posterior (AP) wave of development along this embryonic axis. The exposure effects ranged from early effects (e.g. no cardiac tissue, heart development occurring anterior to neural tissue, cardiabifida) to later effects, such as wide hearts and left looping (Table 1). The cardiac phenotypes observed with early HCy exposure were similar, although not identical, to those obtained from previous studies of Li exposure on avian heart development (Manisastry et al., 2006). The Wnt/β-catenin modulated genes Hex and Isl1 in the chick embryo also were similarly repressed with HCy, as with Li in the chick cardiogenic region. […] Investigation of regulatory gene activity in chick embryos indicates Li, HCy and Wnt3A suppress Wnt-modulated genes Hex and Islet-1 in the heart fields.
To define the effective dose of Wnt3A needed to induce cardiac dysmorphogenesis, Wnt3A was tested at concentrations of 2 ng, 10 ng, 20 ng, 50 ng, and 100 ng per ml. The minimal effective doses of Wnt3A that induced cardiac and neural anomalies were 2 ng/ml and 10 ng/ml, respectively. Using these concentrations, the inventors analyzed whether FA supplementation of media at 10^3-fold higher concentrations, that is 2 μg/ml or 10 μg/ml, would provide protection against the augmentation of canonical Wnt3A signaling.

[1] = test system: Acadm and Acadl gene expression; assay: RT-PCR of Acadm and Acadl in E7.5 embryos and E15.5 hearts; assay type: in vivo, mouse; conditions: for Acadm expression: E15.5 hearts, versus control hearts
Text: The gene expression data were validated by RT-PCR in mouse embryos at both E 7.5 (a half day after exposure) and at E15.5 and by in situ hybridization for tissue localization analyses. The inventors chose E 7.5 to determine early gestational changes in gene expression and to define whether these expression changes were maintained during pregnancy to E 15.5. Digoxigenin labeled probes and alkaline phosphatase secondary antibody detection for in situ hybridization were used (Roche, Inc., Indianapolis, Ind.).

[2] = 50 μM HCy, early embryonic chick model
[3] = HH stage 3 +/4, Li 50 μM, inositol 280 mM
[4] = White Leghorn, chick, in vivo, 50 μM

`N[C@H]1CCSC1=O` [HCy, L-homocysteine thiolactone hydrochloride] was tested. Which “Dead, Frequency” value (chick embryos; [2]) did it give?
Its value is 6.

What about the “Dead, Percent” value (chick embryos; [2]) of the same compound?
Its value is 5.6%.

What about the “Abnormal (number of embryos)” value (chick embryos; [3]) of the same compound?
Its value is 100.

And the “Normal (number of embryos)” value (chick embryos; [3])?
The value was 28.

What about the “% Normal Hearts” value (chick embryos; HH stage 3 +/4, Li 50 μM, inositol 280 mM, hydrochloride) of the same compound?
Its value is 22%.

What about the “Abnormal (number of embryos)” value (chick embryos; HH stage 5) of the same compound?
The value was 50.

What about the “Normal (number of embryos)” value (chick embryos; HH stage 5) of the same compound?
Its value is 24.

And the “% Normal Hearts” value (chick embryos; HH stage 5, hydrochloride)?
The value was 32%.

And the minimal teratogenic dose (chick embryos; White Leghorn, chick, in vivo)?
Its minimal teratogenic dose is 50 µM.

What about the “Cardiabificla, Frequency” value (chick embryos; [4]) of the same compound?
Its value is 11.

And the “Cardiabificla, Percent” value (chick embryos; [4])?
Its value is 10.2%.

And the “Delayed development, Frequency” value (chick embryos; [4])?
Its value is 2.

And the “Delayed development, Percent” value (chick embryos; [4])?
The value was 1.9%.

What about the “Heart above head, Frequency” value (chick embryos; [4]) of the same compound?
Its value is 18.

And the “Heart above head, Percent” value (chick embryos; [4])?
The value was 16.7%.

And the “Heart close midline, Frequency” value (chick embryos; [4])?
The value was 15.

What about the “Heart close midline, Percent” value (chick embryos; [4]) of the same compound?
Its value is 13.9%.

And the “Left looping, Frequency” value (chick embryos; [4])?
Its value is 11.

And the “Left looping, Percent” value (chick embryos; [4])?
Its value is 10.2%.

And the “Tubular heart, Frequency” value (chick embryos; [4])?
The value was 3.

What about the “Tubular heart, Percent” value (chick embryos; [4]) of the same compound?
Its value is 2.8%.

What about the “Very abnormal (or no hearts), Frequency” value (chick embryos; [4]) of the same compound?
Its value is 18.

And the “Very abnormal (or no hearts), Percent” value (chick embryos; [4])?
The value was 16.7%.

And the “Wide heart, Frequency” value (chick embryos; [4])?
Its value is 24.

And the “Wide heart, Percent” value (chick embryos; [4])?
Its value is 22.2%.

And the “development after exposure at HH stages 6 and 7” value (chick embryos; in vivo)?
Its value is “normal development”.

What about the Acadm/Acadl gene expression ([1]; E7.5, versus control embryos, FA from morning after conception) of the same compound?
Its Acadm/Acadl gene expression is “slightly down-regulated”.

What about the Acadm expression [1] of the same compound?
The Acadm expression was “upregulation”.

Which results are given for `Nc1nc2ncc(CNc3ccc(C(=O)N[C@@H](CCC(=O)O)C(=O)O)cc3)nc2c(=O)[nH]1` [FA, folic acid]?
% Normal Hearts (chick embryos; [3]): 55%; Abnormal (number of embryos) (chick embryos; [3]): 5; Normal (number of embryos) (chick embryos; [3]): 6; % Normal Hearts (chick embryos; HH stage 3 +/4, Li 50 μM, inositol 280 mM, listed as FA only): 55%; heart development (MF20) (chick embryos; in vivo): normal heart development; Acadm expression [1]: returned the expression close to control levels
